According to US10954549B2, “Detection and classification of an anticoagulant using a clotting assay” (Haemonetics Corporation, priority 2014, dated 2021):

What was measured:
citrated whole blood [1] = assay: TEG Kaolin test of blood spiked with anticoagulant; type: biochemical, human
Description: (§1) The TEG clotting assay was used to determine if low, normal, and high doses of dabigatran, rivaroxaban, and apixaban could be detected in blood spiked with these compounds. Three oral anticoagulants (OAC), namely dabigatran, rivaroxaban, and apixaban, were spiked into blood obtained from 14 healthy volunteer human donors. For each OAC tested, citrated blood from three donors was spiked with three different concentrations of the active drug (i.e., the compound). The spiked blood samples and control samples spiked with diluent were tested with the TEG® 5000 Thrombelastograph® Hemostasis Analyzer (Haemonetics Corporation, Braintree, Mass., USA) using the Kaolin and RapidTEG® reagents (Haemonetics). Each sample was run in triplicate. All samples were tested with and without ecarin (purchased from Enzyme Research Laboratories, South Bend, IN). This study was IRB approved and all donors were over 18 and signed informed consent forms.
Dabigatran stock was prepared from the active dabigatran moiety (Alsachim, France) by dissolution in 0.1M HCl and further dilution in 1:1 DMSO:H20. […] Tubes of citrated blood were spiked with this dabigatran stock to create final concentrations of 500, 200, and 50 ng/mL of citrated whole blood.
Rivaroxaban stock was prepared by agitation of a 20 mg Xarelto tablet (Jannsen, Titusville, N.J.) in a 1:1 DMSO: H20 solution, which was diluted to a final concentration of 20 ng/uL rivaroxaban in 1:1 DMSO:H20. Tubes of citrated blood were spiked with this rivaroxaban stock to create final concentrations of 500, 89, and 22 ng/mL in citrated whole blood. […] Apixaban stock was prepared in a similar manner from a 2.5 mg Eliquis tablet (Bristol-Myers Squibb, New York, N.Y.), with final concentrations of 1000, 500, and 250 ng/mL in whole blood. Apixaban is approved for prevention of VTE in elective hip or knee replacement surgery (2.5 mg BID) and for prevention of stroke and systemic embolism in patients with non-valvular AF (5 mg BID) (see Bristol-Myers SP, EEIG. apixaban summary of product characteristics). […] Control samples, prepared for each tested drug, included a solvent control containing only citrated blood and the diluent used to dilute the drug stock, and an unadulterated citrate blood tube.
Testing was performed on TEG-5000 analyzers (Haemonetics Corp., Braintree, Mass., USA) using Kaolin vials, 0.2M CaCl2, RapidTEG (rTEG) vials, diluent water, and disposable clear cups and pins provided by the manufacturer (Haemonetics, Braintree, Mass.), and ecarin (Enzyme Research Laboratories, South Bend, Ind.). All testing was performed in triplicate at each dose, and allowed to continue until the MA (maximum amplitude) parameter defined. The various components of the TEG tracing are depicted in FIG. 3A. The Kaolin test generates an R parameter, which is measured in minutes, and is the time elapsed from the initiation of the test until the point where the onset of clotting provides enough resistance to produce a 2 mm amplitude reading on the TEG tracing. This parameter represents the initiation phase of coagulation related to the function of enzymatic clotting factors. The R parameter has a normal range of 5 to 10 min for kaolin. A prolonged R time indicates slower clot formation. K is a measurement of the time interval from the split point to the point where fibrin cross-linking provides enough clot resistance to produce a 20 mm amplitude reading. The α angle is the angle formed by the slope of a tangent line traced from the R to the K time and a central line measured in degrees. K time and the α angle denote the rate at which the clot strengthens, and is representative of thrombin's cleaving of the available fibrinogen into fibrin. The MA indicates the point at which clot strength reaches its maximum amplitude, measured in millimeters on the TEG tracing, and reflects the end result of maximal platelet-fibrin interaction via the GPIIb-IIIa receptors (see Khurana S et al., J Lab Clin Med. 130:401-411, 1997). […]

citrated whole blood [2] = assay: RapidTEG (rTEG) test of blood spiked with anticoagulant; type: biochemical, human
Description: as §1
The RapidTEG (rTEG) test incorporated both tissue factor and kaolin to generate the conventional kaolin parameters as well as the TEG-ACT parameter, which is measured in seconds. The TEG-ACT is equivalent to the Activated Clotting Time (see Chavez J. J. et al., Anesth. Analg. 99:1290-1294, 2004) and has a normal range of 86 to 118 seconds. A prolonged TEG-ACT time indicates slower clot formation. In addition, velocity curves derived from the above mentioned kaolin and rTEG tests were plotted using TEG software. These curves represent the speed of clot propagation (MRTG, Maximum Rate of Thrombus Generation; and TMRTG, Time to Maximum Rate of Thrombus Generation) (see FIG. 3B).
For the RapidTEG (rTEG) test, the reagent was reconstituted with 20 μL diluent water, and allowed to stand for 5 minutes per manufacturer instructions. Ten μL of this reconstituted reagent was added to the TEG cup with 20 μl 0.2M CaCl2 for recalcification.
(§2) 340 μL of the citrated blood sample was added to the cup with these two reagents, and the contents of the cup were mixed 3 times by drawing the contents of the cup up into the pipette and redispensing it into the cup. The test was started immediately after mixing and allowed to run until the MA parameter had defined. The rTEG with ecarin test was performed as the rTEG test above, using 20 μL of an ecarin/CaCl2 solution (0.16M CaCl2; 19EU/mL ecarin).

citrated whole blood [3] = assay: TEG kaolin with ecarin test of spiked blood; type: biochemical, human
Description: as §1
For the kaolin test, 1 mL of citrated blood sample was mixed with kaolin and 340 microliters (μL) of this blood was added to a TEG cup containing 20 μL of 0.2M CaCl2 for recalcification. The kaolin with ecarin test was performed in a similar fashion, using 20 μL of an ecarin/CaCl2 solution (0.16 M CaCl2; 19 EU/mL ecarin).
Ecarin is derived from the venom of the saw-scaled viper, Echis carinatus. Ecarin activates prothrombin (the precursor of thrombin—see FIG. 5). This activation of prothrombin by ecarin produces meizothrombin, a prothrombin-thrombin intermediate which has a low level of procoagulant enzymatic activity.
Healthy human volunteers (who are not being administered any anticoagulant), donated blood. Following donation, the blood collected from the donors (which was added to citrate to prevent clotting) was divided into portions, and portions of the blood were spiked with either nothing, dabigatran, or rivaroxaban. The portions were then assayed using thromboelastography, including assays performed in the presence of ecarin.

citrated whole blood [4] = assay: rTEG with ecarin test of spiked blood; type: biochemical, human
Description: as §1, §2

[5] = system: blood from healthy volunteers; assay: Thromboelastography R time of spiked blood in the presence of the FXa reagent; type: biochemical, human; conditions: in vitro spiking, increasing concentrations
Procedure: Blood from healthy volunteers known not to be taking any oral anticoagulant and without any other significant health issues are analyzed using the FXa or the Ecarin reagent in a TEG® hemostasis analyzer. The FXa reagent (i.e., the Factor Xa reagent) is used to detect the presence (or absence) of an anticoagulant in the blood component being tested. In absence of any oral anticoagulant, the FXa reagent will accelerate the clotting process and result in a very short R-time. In presence of direct thrombin inhibitors and/or anti-Factor Xa anticoagulant(s), the process is slowed down and will cause elongation of the R-time. This difference in R-time is utilized to detect the presence of the oral anticoagulant. The R-time generated from multiple donors was used to construct a reference range. Blood was spiked with either direct thrombin inhibitors or anti-Xa(s) at different concentrations and analyzed using the FXa reagent or the Ecarin reagent. The drug concentrations chosen represent the published therapeutic ranges for these two classes of drugs. This assay was repeated in multiple donors to account for possible donor variations.

[6] = cited from earlier work
porcine plasma = assay: TEG 6S DTI channel R-time, porcine experimental trauma model; type: in vivo
Procedure: The TEG®6S system (Haemonetics Corp., Braintree, Mass.) is based on viscoelasticity measurements using resonance frequency and disposable multi-channel microfluidic cartridges. Blood and plasma from healthy volunteers were spiked with dabigatran in the therapeutic range (in increasing concentrations) and tested with an OAC cartridge with an ecarin based, direct thrombin inhibitor (DTI) channel. This channel was also evaluated with porcine plasma from an experimental trauma model (n=6) where dabigatran levels were measured with dilute TT (Hemoclot®). TEG 6s R-time (reaction time) was correlated to the drug levels.

COc1ccc(-n2nc(C(N)=O)c3c2C(=O)N(c2ccc(N4CCCCC4=O)cc2)CC3)cc1 [apixaban, Apixaban]
MA versus control group (citrated whole blood [1]; 250 ng/mL, still within normal range): significantly different from the control group
R time versus non-spiked blood sample (citrated whole blood [1]; highest concentration tested): significantly higher
R, K, α, and MRTG parameters, statistical significance versus control (citrated whole blood [1]; three concentrations per drug, Example 1): able to detect the presence of all tested concentrations
K, α and MRTG parameters versus control or between studied concentrations (citrated whole blood [2]): did not show any statistical difference
TMRTG parameter sensitivity to presence of drug (citrated whole blood [2]): not
MA values versus control (citrated whole blood [2]; all studied concentrations): did not change
TEG ACT parameter versus control group (citrated whole blood [2]; all tested concentrations (except rivaroxaban 22 ng/mL)): significantly different
ACT time versus non-spiked blood sample (citrated whole blood [2]; medium and higher concentrations): significantly higher
R time in the presence versus absence of ecarin (citrated whole blood [3]; FIGS. 8A-8C): equivalent and significant shortening of R time
MA values with ecarin relative to samples run without ecarin (citrated whole blood [3]; kaolin test): statistically different
R, K and TMRTG values on addition of ecarin to the kaolin test (citrated whole blood [3]; treated and control groups): significant decrease
α and MRTG values on addition of ecarin to the kaolin test (citrated whole blood [3]; treated and control groups): significant increase
TEG-ACT times on addition of ecarin to the RapidTEG test (citrated whole blood [4]): significantly decreases
RapidTEG α angle when ecarin was added (citrated whole blood [4]; any of the studied concentrations): did not change
RapidTEG K values when ecarin was added (citrated whole blood [4]; highest and lowest concentrations): significantly decreased
R-time compared to the reference range, FXa reagent [5]: dose dependent elongation of the R-time
half-lives compared ([6]; in vivo): shorter half-lives than dabigatran
Cmax ([6]; oral dose of 20 mg): 460 ng/mL
increased half-life ([6]; patients with severe renal impairment compared to healthy volunteers): up to 44%

B1: idarucizumab: reversal agent that reverses the anticoagulant effect of dabigatran (Boehringer Ingelheim) (antibody, chains of the INN, looked up, V domains shown)
VH: QVQLQESGPGLVKPSETLSLTCTVSGFSLTSYIVDWIRQPPGKGLEWIGVIWAGGSTGYNSALRSRVSITKDTSKNQFSLKLSSVTAADTAVYYCASAAYYSYYNYDGFAYWGQGTLVTVSS
VL: DVVMTQSPLSLPVTLGQPASISCKSSQSLLYTDGKTYLYWFLQRPGQSPRRLIYLVSKLDSGVPDRFSGSGSGTDFTLKISRVEAEDVGVYYCLQSTHFPHTFGGGTKVEIK
R-time after administration of the reversal agent (porcine plasma; after dabigatran, trauma model, baseline 3.4±0.6 min): 3.6 ± 0.6 min
R time upon administration of the reversal agent (porcine plasma; five separate swine plasma samples, FIG. 16): returned to baseline
